ChEMBL document CHEMBL1212844, “Synthesis and biological evaluation of naphthoquinone analogs as a novel class of proteasome inhibitors” (Bioorg Med Chem, 2010)

Assays:
[1] = Inhibition of chymotrypsin like proteolytic activity of rabbit 26S proteasome; set-up: species or system Oryctolagus cuniculus
[2] = Inhibition of trypsin like proteolytic activity of rabbit 26S proteasome; set-up: species or system Oryctolagus cuniculus
[3] = Inhibition of PGPH activity of rabbit 26S proteasome; set-up: species or system Oryctolagus cuniculus
[4] = Inhibition of 26S proteasome-mediated chymotrypsin like proteolytic activity in human MCF7 cells; type: cell-based
[5] = Inhibition of calpain
[6] = Dissociation constant, pKa of the compound; type: physicochemical

SMILES	IC50 [1] [µM]	IC50 [2] [µM]	IC50 [3] [µM]	IC50 [4] [µM]	IC50 [5] [µM]	pKa [6]
COc1cc(NC2=C(Cl)C(=O)c3ccccc3C2=O)ccc1S(=O)(=O)Nc1ccccc1C	13.7	24.3	30	–	–	–
COc1ccc(NS(=O)(=O)c2ccc(NC3=C(Cl)C(=O)c4ccccc4C3=O)cc2OC)cc1	15.3	23.3	35	–	–	–
COc1cccc(NS(=O)(=O)c2ccc(NC3=C(Cl)C(=O)c4ccccc4C3=O)cc2)c1	17	24.6	43.5	–	–	–
Cc1cc(C)nc(NS(=O)(=O)c2ccc(NC3=C(Cl)C(=O)c4ccccc4C3=O)cc2)n1	19	20.9	50.2	–	–	< 7.91
COc1ccccc1NS(=O)(=O)c1ccc(NC2=C(Cl)C(=O)c3ccccc3C2=O)cc1	20.8	24.7	49.2	–	–	–
Cc1cccc(NS(=O)(=O)c2ccc(NC3=C(Cl)C(=O)c4ccccc4C3=O)cc2)c1	20.8	55	> 100	–	–	–

More lines, in order of falling IC50 [2], values ahead:

IC50 [1] [µM]	IC50 [2] [µM]	IC50 [3] [µM]	IC50 [4] [µM]	IC50 [5] [µM]	pKa [6]	SMILES
16.3	20.7	25.6	–	–	< 7.91	O=C1C(Cl)=C(Nc2ccc(S(=O)(=O)Nc3ccnn3-c3ccccc3)cc2)C(=O)c2ccccc21
11.2	13.2	16.7	–	–	< 7.91	Cc1cc(NS(=O)(=O)c2ccc(NC3=C(Cl)C(=O)c4ccccc4C3=O)cc2)no1
6.4	10.7	13.4	–	–	< 7.91	Cc1nnc(NS(=O)(=O)c2ccc(NC3=C(Cl)C(=O)c4ccccc4C3=O)cc2)s1
3.9	9.25	21.2	–	–	< 7.91	Cc1noc(NS(=O)(=O)c2ccc(NC3=C(Cl)C(=O)c4ccccc4C3=O)cc2)c1C
3.3	8.15	14.3	–	–	< 7.91	O=C1C(Cl)=C(Nc2ccc(S(=O)(=O)Nc3nccs3)cc2)C(=O)c2ccccc21
–	7	0.48	–	–	–	CC(C)C[C@H](NC(=O)[C@H](Cc1ccccc1)NC(=O)c1cnccn1)B(O)O [BORTEZOMIB]
1	4.5	4.5	6	> 30	–	O=C1C(Cl)=C(Nc2ccc(S(=O)(=O)Nc3ccccn3)cc2)C(=O)c2ccccc21
